Columns and labels:
[1] = Metal reduction assay, Cu^2+ to Cu^+; format: biochemical; conditions: 10 μM Cu^2+, PBS pH 7.4, 1 hr 37° C.
Method: Aβ (10 μM in PBS, pH 7.4 or 6.8, as shown) was incubated for 30 minutes (37° C.) in the presence of Cu^2+10 μM ±Zn^2+ 10 μM). […] levels (n=3, ±SD) were assayed against a standard curve.
Polypeptides (10 μM) or Vitamin C (100 μM), metal ions (10 μM, Fe(NO3)3 or Cu(NO3)2), and reduced metal ion indicators, bathophenanthrolinedisulfonic acid (BP, for Fe^2+, Sigma, 200 μM) or bathocuproinedisulfonic acid (BC, for Cu^+, Sigma, 200 μM), were coincubated in phosphate buffered saline (PBS), pH 7.4, for 1 hr at 37° C. The metal ion solutions were prepared by direct dilution in the buffer from their aqueous stocks purchased from National Institute of Standards and Technology (NIST). […] In control samples, both metal ion and indicator were present to determine the background buffer signal. As a further control, both metal ion and peptide were present in the absence of indicator to estimate the contribution of light scattering due to turbidity to the absorbance reading at these wavelengths. The net absorbances (ΔA) at 536 nm or 483 nm were obtained by deducting the absorbances from these controls from the absorbances generated by the peptide and metal in the presence of the respective indicator.

[2] = Metal reduction assay, Fe^3+ to Fe^2+; format: biochemical; conditions: 10 μM Fe^3+, PBS pH 7.4, 1 hr 37° C.
Method: The metal reduction assay was performed using a 96-well microtiter plate (Costar) based upon a modification of established protocols (Landers, J. W., et al., Amer. Clin. Path. 29:590 (1958); Landers, J. W., et al., Clinica Chimica Acta 3:329 (1958)). Polypeptides (10 μM) or Vitamin C (100 μM), metal ions (10 μM, Fe(NO3)3 or Cu(NO3)2), and reduced metal ion indicators, bathophenanthrolinedisulfonic acid (BP, for Fe^2+, Sigma, 200 μM) or bathocuproinedisulfonic acid (BC, for Cu^+, Sigma, 200 μM), were coincubated in phosphate buffered saline (PBS), pH 7.4, for 1 hr at 37° C. The metal ion solutions were prepared by direct dilution in the buffer from their aqueous stocks purchased from National Institute of Standards and Technology (NIST). Absorbances were then measured at 536 mn (Fe^2+-BP complex) and 483 nm (Cu^+-BC complex), respectively, using a 96-well plate reader (SPECTRAmax 250, Molecular Devices, CA). In control samples, both metal ion and indicator were present to determine the background buffer signal. As a further control, both metal ion and peptide were present in the absence of indicator to estimate the contribution of light scattering due to turbidity to the absorbance reading at these wavelengths. The net absorbances (ΔA) at 536 nm or 483 nm were obtained by deducting the absorbances from these controls from the absorbances generated by the peptide and metal in the presence of the respective indicator.
The concentrations of reduced metal ions (Fe^2+ or Cu^+) were quantified based on the formula: Fe^2+ or Cu^+ (˜M)=A*10^6/(L*M), where L is the measured equivalent vertical pathlength for a well of 300 μL volume as described in the instrument's specifications manual (0.856 cm for Fe^2+; 1.049 cm for Cu^+); M is the known molecular absorbance (M^−1 cm^−1) which is 7124 (for Fe^2+-BP complex) or 2762 (for Cu^+-BC complex).

## Aβ1-40: synthetic human Aβ peptide, residues 1-40
[1]
  reduction of available Cu^2+: 60%
[2]
  reduction of available Fe^3+: 12%
